Measured values: patent publication US4956466A, “Thiazole derivatives and process for the preparation thereof” (Laboratorios Vinas, S. A., priority 1988, dated 1990)

Test system: ethanol-induced ulcers
Assay: Necrotising agent model: ethanol-induced ulcers
Type: in vivo, rat
Method: (B) Necrotising agent model:
Using the necrotising agent model, ethanol in this case, described by Robert el al. (Gastroenterology, 77: 433, 1979), the activity of LV-200 was compared with that of Nt at equimolar dose levels and a control group which was administered vehicle.
The table below gives the lesion indices (in ulcerated area in mm) of the three groups studied, as well as the percentage inhibition of the ulcers of the treated groups over the control group (mean values±standard error of the mean).

CNC(=C[N+](=O)[O-])NCCSCc1csc(CN(C)C)n1 [Nt, N-methyl-N'-2-((2(dimethylaminomethyl)-4-thiazolyl)methylthio)ethyl-2-nitro-1,1-ethylenediamine]
inhibition of ulcers induced by absolute ethanol (in words) (absolute ethanol): does not inhibit ulcers | % inhibition of the ulcers over the control group (ethanol, equimolar doses of LV-200 (230 mg/kg) and Nt): 0% | lesion index (ulcerated area), mm lesions (ethanol, equimolar doses of LV-200 (230 mg/kg) and Nt, mean ± standard error of the mean, control 91.2 ± 17.7, LV-200 p < 0.01 vs control, p < 0.001 versus Nt (t test)): 97.7 ± 11.8 mm
